One data set relates to breast cancer. Particulars: women at high risk of breast cancer, versus placebo; cited from earlier work.
For data set [1], the system named is polychromatic erythrocytes in the mouse bone marrow. Particulars: CTX 30 mg/kg alone; 8000 cells.

The structures appear in SMILES notation.

Take `CC/C(=C(\c1ccccc1)c1ccc(OCCN(C)C)cc1)c1ccccc1` [Tamoxifen]: in the data set on breast cancer, the “decrease in invasive cancer” value is given as 49% and the “decrease in non-invasive breast cancer” value is given as 50%.

On to `O=P1(N(CCCl)CCCl)NCCCO1` (stereo not drawn) [CTX, cyclophosphamide], for which the “Micronucleus Rate” value in data set [1] was found to be 17.3 ± 1.1 %0.

Source of the values: patent US20050025841A1, “Therapeutic methods using herbal compositions” (priority 2001, published 2005).
